Source: patent US5424309A, “N-substituted acylamino acid compounds, process for their production and their use” (Banyu Pharmaceutical Co., Ltd., priority 1988, dated 1995)

The compounds below were run against T1, human plasma renin (Homo sapiens, UniProt P00797) (assay: Renin inhibiting activities (human plasma, angiotensin I by radio immunoassay)). Conditions: pH7.4, 37° C., one hour, read-out: IC50 (50 % inhibition concentrations), renin inhibiting activity.
T1 construct: from tissue; host or cells: human plasma
T1 sequence (P00797 67-406): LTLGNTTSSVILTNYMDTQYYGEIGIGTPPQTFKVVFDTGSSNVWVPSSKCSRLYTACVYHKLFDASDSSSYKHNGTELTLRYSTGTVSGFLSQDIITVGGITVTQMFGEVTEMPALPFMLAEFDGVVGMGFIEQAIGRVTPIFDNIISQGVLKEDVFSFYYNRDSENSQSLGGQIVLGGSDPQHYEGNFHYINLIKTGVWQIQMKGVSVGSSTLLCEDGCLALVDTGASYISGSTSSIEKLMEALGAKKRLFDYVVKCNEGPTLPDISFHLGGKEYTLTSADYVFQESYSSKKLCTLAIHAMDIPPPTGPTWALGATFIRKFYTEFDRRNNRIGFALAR
Assay type: biochemical
Experimental: To 156 μl of a 0.2M sodium phosphate buffer solution (pH7.4), 40 μl of a solution mixture of 34 mM 8-hydroxyquinoline and 100 mM disodium ethylenediamine tetraacetate, 4 μl of dimethyl sulfoxide or a dimethyl sulfoxide solution of test compound and 200 μl of human plasma were added and reacted at 37° C. for one hour. Then, pepstatin was added thereto to terminate the reaction, and the amount of the resulting angiotension I was measured by radio immunoassay whereby the inhibiting activity was determined.

| Compound | IC50 |
| --- | --- |
| CCCC[C@H](NC(=O)[C@H](Cc1cccc2ccccc12)CS(=O)(=O)CC(COC(C)=O)OC(C)=O)C(=O)N[C@@H](CC1CCCCC1)[C@@H](O)[C@@H](O)CN1CCOCC1 (mixture of isomers) [Example 1, (2S, 3R, 4S)-4-{L-N-[(2S)-3-[(2RS)-2,3-diacetoxypropyl]sulfonyl-2-(1-naphthylmethyl)propionyl]norleucyl}amino-5-cyclohexyl-1-morpholino-2,3-pentanediol] | 2.5 nM |
| CCCC[C@H](NC(=O)[C@H](Cc1cccc2ccccc12)CS(=O)(=O)CC(O)COC(=O)CC)C(=O)N[C@@H](CC1CCCCC1)[C@@H](O)[C@@H](O)CN1CCOCC1 (mixture of isomers) [Example 12, (2S,3R,4S)-4-{L-N-[(2S)-3-[(2RS)-3-propionyloxy-2-hydroxypropyl]sulfonyl-2-(1-naphthylmethyl)propionyl]norleucyl}amino-5-cyclohexyl-1-morpholino-2,3-pentanediol] | 4.3 nM |
| CCCC[C@H](NC(=O)[C@H](Cc1cccc2ccccc12)CS(=O)(=O)CC(COC(=O)CC)OC)C(=O)N[C@@H](CC1CCCCC1)[C@@H](O)[C@@H](O)CN1CCOCC1 (mixture of isomers) [Example 14, (2S,3R,4S)-4-{L-N-[(2S)-3-[(2RS)-2-methoxy-3-propionyloxypropyl]sulfonyl-2-(1-naphthylmethyl)propionyl]norleucyl}amino-5-cyclohexyl-1-morpholino-2,3-pentanediol] | 2 nM |
| CCCC[C@H](NC(=O)[C@H](Cc1cccc2ccccc12)CS(=O)(=O)CC(COC)OC(C)=O)C(=O)N[C@@H](CC1CCCCC1)[C@@H](O)[C@@H](O)CN1CCOCC1 (mixture of isomers) [Example 28, (2S,3R,4S)-4-{L-N-[(2S)-3-[(2RS)-2-acetoxy-3-methoxypropyl]sulfonyl-2-(1-naphthylmethyl)propionyl]norleucyl}amino-5-cyclohexyl-1-morpholino-2,3-pentanediol] | 1.9 nM |
| CCCC[C@H](NC(=O)[C@H](Cc1cccc2ccccc12)CS(=O)(=O)CCOC(C)=O)C(=O)N[C@@H](CC1CCCCC1)[C@@H](O)[C@@H](O)CN1CCOCC1 [Example 3, (2S,3R,4S)-4{L-N-[(2S)-3-(2-acetoxyethyl)sulfonyl-2-(1-naphthylmethyl)propionyl]norleucyl)amino-5-cyclohexyl-1-morpholino-2,3-pentanediol] | 3.1 nM |
| CCCC[C@H](NC(=O)[C@@H](CSCC(COC(C)=O)OC)Cc1cccc2ccccc12)C(=O)N[C@@H](CC1CCCCC1)[C@@H](O)[C@@H](O)CN1CCOCC1 (mixture of isomers) [Example 27, (2S,3R,4S)-4-{L-N-[(2S)-3-[(2RS)-3-acetoxy-2-methoxypropyl]thio-2-(1-naphthylmethyl)propionyl]norleucyl}amino-5-cyclohexyl-1-morpholino-2,3-pentanediol] | 2.2 nM |
| CCCC[C@H](NC(=O)[C@H](Cc1cccc2ccccc12)CS(=O)(=O)C1CCC(OC(C)=O)C1)C(=O)N[C@@H](CC1CCCCC1)[C@@H](O)[C@@H](O)CN1CCOCC1 (single isomer, unassigned) [Example 33 (having a high Rf value)] | 2.2 nM |
| CCCC[C@H](NC(=O)[C@H](Cc1cccc2ccccc12)CS(=O)(=O)CC(COC(C)=O)(OCC)OCC)C(=O)N[C@@H](CC1CCCCC1)[C@@H](O)[C@@H](O)CN1CCOCC1 [Example 48, (2S,3R,4S)-4-{L-N-[(2S)-3-(3-acetoxy-2,2-diethoxypropyl)sulfonyl-2-(1-naphthylmethyl)propionyl]norleucyl}amino-5-cyclohexyl-1-morpholino-2,3-pentanediol] | 3.9 nM |
| CCCC[C@H](NC(=O)[C@H](Cc1cccc2ccccc12)CS(=O)(=O)C1CCC(OC(C)=O)C1OC(C)=O)C(=O)N[C@@H](CC1CCCCC1)[C@@H](O)[C@@H](O)CN1CCOCC1 (stereo partly drawn) [Example 36, (2S,3R,4S),4-{L-N-[(2S)-3-(2,3-diacetoxycyclopentyl)sulfonyl-2-(1-naphthylmethyl)propionyl]norleucyl}amino-5-cyclohexyl-1-morpholino-2,3-pentanediol] | 1.9 nM |
| CCCC[C@H](NC(=O)[C@H](Cc1cccc2ccccc12)CS(=O)(=O)CC(COC(C)=O)OC)C(=O)N[C@@H](CC1CCCCC1)[C@@H](O)[C@@H](O)CN1CCOCC1 (single isomer, unassigned) [Example 40] | 1 nM |
| CCCC[C@H](NC(=O)[C@H](Cc1cccc2ccccc12)C[S+]([O-])c1ccc(OC(C)=O)cc1)C(=O)N[C@@H](CC1CCCCC1)[C@@H](O)[C@@H](O)CN1CCOCC1 (single isomer, unassigned) [Example 20 (having a low Rf value)] | 4 nM |
| CCCC[C@H](NC(=O)[C@H](Cc1cccc2ccccc12)CS(=O)(=O)CC(COC(=O)CC)OC(=O)CC)C(=O)N[C@@H](CC1CCCCC1)[C@@H](O)[C@@H](O)CN1CCOCC1 (mixture of isomers) [Example 8, (2S,3R,4S)-4-{L-N-[(2S)-3-[(2RS)-2,3-dipropionyloxypropyl]sulfonyl,-2-(1-naphthylmethyl)propionyl]norleucyl}amino-5-cyclohexyl-1-morpholino-2,3-pentanediol] | 3.3 nM |
| CCCC[C@H](NC(=O)[C@H](Cc1cccc2ccccc12)C[S+]([O-])CC(COC(C)=O)OC(C)=O)C(=O)N[C@@H](CC1CCCCC1)[C@@H](O)[C@@H](O)CN1CCOCC1 (mixture of isomers) [Example 6 (having a low Rf value), (2S,3R,4S)-4-{L-N-[(2S)-3-[(2RS)-2,3-diacetoxypropyl]sulfinyl-2-(1-naphthylmethyl)propionyl]norleucyl}amino-5-cyclohexyl-1-morpholino-2,3-pentanediol] | 4.1 nM |

The compounds below were run on marmosets (assay: Hypotensive activities in monkeys (furosemide-treated marmosets, oral administration)). Conditions: 30 mg/kg orally; three marmosets; furosemide 30 mg/kg pretreatment (high renin active state); FIG. 1.
Assay type: in vivo
Experimental: The hypotensive activities were measured in accordance with a method disclosed in J. Cardiovascular Pharmacology, Vol. 7, (Suppl. 4) S58-61 (1985). Namely, 30 mg/kg of furosemide (diuretic) was intracutaneously injected to three marmosets i.e. small size monkeys to produce a high renin active state. To these marmosets, 30 mg/kg of the compound of Example 1 was orally administered, whereupon the hypotensive activities were measured.

| Compound | hypotensive activities |
| --- | --- |
| CCCC[C@H](NC(=O)[C@H](Cc1cccc2ccccc12)CS(=O)(=O)CC(COC(C)=O)OC(C)=O)C(=O)N[C@@H](CC1CCCCC1)[C@@H](O)[C@@H](O)CN1CCOCC1 (mixture of isomers) [Example 1, (2S, 3R, 4S)-4-{L-N-[(2S)-3-[(2RS)-2,3-diacetoxypropyl]sulfonyl-2-(1-naphthylmethyl)propionyl]norleucyl}amino-5-cyclohexyl-1-morpholino-2,3-pentanediol] | exhibits hypotensive activities by the oral administration |
